From ChEMBL document CHEMBL1146663, “Anti-inflammatory flavonoids and pterocarpanoid from Crotalaria pallida and C. assamica” (Bioorg Med Chem Lett, 2004)

Assays:
Rattus norvegicus [1] = species on record: Rattus norvegicus; assay: Inhibitory effect of compound on superoxide anion generation in rat neutrophils stimulated with fMLP/CB; format: functional
Mus musculus [2] = species on record: Mus musculus; assay: Inhibitory effect of compound on the accumulation of NO2 in the culture media of N9 cells in response to LPS/IFN-gamma; format: functional, cell-based
Mus musculus [3] = species on record: Mus musculus; assay: Inhibitory effect of compound on the accumulation of NO2 in the culture media of RAW 264.7 cells in response to LPS; format: functional, cell-based
Rattus norvegicus [4] = species on record: Rattus norvegicus; assay: Inhibitory effect of compound on superoxide anion generation in rat neutrophils stimulated with PMA; format: functional
Mus musculus [5] = species on record: Mus musculus; assay: Inhibitory effect of compound on the accumulation of NO2 in the culture media of N9 cells in response to LPS/IFN-gamma; potent effect; format: functional
Mus musculus [6] = species on record: Mus musculus; assay: Inhibitory effect of compound on the accumulation of NO2 in the culture media of RAW 264.7 cells in response to LPS; potent effect; format: functional

Row | Compound | IC50 (Rattus norvegicus [1]) [µM] | IC50 (Mus musculus [2]) [µM] | IC50 (Mus musculus [3]) [µM] | IC50 (Rattus norvegicus [4]) [µM] | IC50 (Mus musculus [5]) | IC50 (Mus musculus [6])
1 | O=c1c(-c2ccc(O)cc2O)coc2cc(O)ccc12 | 25.1 | > 30 | > 30 | > 30 | – | –
2 | CN1CCN(CCCN2c3ccccc3Sc3ccc(C(F)(F)F)cc32)CC1 [TRIFLUOPERAZINE] | 6.6 | – | – | 2.7 | – | –
3 | O=c1c(-c2ccc(O)cc2O)coc2cc(O)cc(O)c12 | > 30 | > 30 | > 30 | > 30 | – | –
4 | C=C(C)c1cc2c3c(ccc2o1)[C@@H]1COc2cc(O)ccc2[C@@H]1O3 [CROTAFURAN A] | – | – | – | – | potent effect | potent effect
5 | O=c1c(O)c(-c2ccc(O)cc2)oc2cc(OC3O[C@H](CO)[C@@H](O)[C@H](O)[C@H]3O)cc(O)c12 (stereo partly specified) | > 30 | > 30 | > 30 | > 30 | – | –
6 | O=c1cc(-c2ccc(O)cc2)oc2cc(O)cc(O)c12 [APIGENIN] | 3.4 | > 30 | 10.7 | > 30 | – | –
7 | CC(=O)c1cc2c3c(ccc2o1)[C@@H]1COc2cc(O)ccc2[C@@H]1O3 [CROTAFURAN B] | – | – | – | – | potent effect | potent effect
8 | O=c1cc(-c2ccc(O)cc2)oc2cc(O)ccc12 | > 30 | > 30 | > 30 | > 30 | – | –
9 | COc1cc(O)ccc1-c1coc2cc(O)cc(O)c2c1=O [THERALIN] | > 30 | > 30 | > 30 | > 30 | – | –
10 | C[C@](O)(CO)c1cc2c3c(ccc2o1)[C@@H]1COc2cc(O)ccc2[C@@H]1O3 | > 30 | 13.9 | > 30 | > 30 | – | –
11 | CC(=N)NCc1cccc(CN)c1 [1400W] | – | 2.2 | 6.1 | – | – | –
